Source: patent publication US6077680A (The University of Florida, dated 2000)
Like-named read-outs stand apart in the source and are kept apart here.

Legend:
[1] = molecular target: rat brain membrane K channels (delayed rectifier, primarily Kv1.2) (rat) (UniProt P63142); assay: 125I-DTX displacement, rat brain membranes
[2] = molecular target: rat brain membrane K channels (delayed rectifier, primarily Kv1.2) (rat) (UniProt P63142)
[3] = test system: rat brain membrane K channels (primarily Kv1.2); assay type: binding; settings: for IC50: read-out: IC50 Rat Brain 125I-CTX
[4] = molecular target: Kv1.3 potassium channels in Jurkat T lymphocytes (Homo sapiens, UniProt P22001); assay type: cell-based
[5] = molecular target: cloned Kv1.3 channel, wild type
[6] = molecular target: rat brain membrane K channels (delayed rectifier, primarily Kv1.2) (rat) (UniProt P63142); remark: listed apart in the source
[7] = molecular target: rat brain membrane K channels (delayed rectifier, primarily Kv1.2) (rat) (UniProt P63142); remark: listed apart in the source

Sequence of Kv1.3 potassium channels in Jurkat T lymphocytes (P22001 whole entry): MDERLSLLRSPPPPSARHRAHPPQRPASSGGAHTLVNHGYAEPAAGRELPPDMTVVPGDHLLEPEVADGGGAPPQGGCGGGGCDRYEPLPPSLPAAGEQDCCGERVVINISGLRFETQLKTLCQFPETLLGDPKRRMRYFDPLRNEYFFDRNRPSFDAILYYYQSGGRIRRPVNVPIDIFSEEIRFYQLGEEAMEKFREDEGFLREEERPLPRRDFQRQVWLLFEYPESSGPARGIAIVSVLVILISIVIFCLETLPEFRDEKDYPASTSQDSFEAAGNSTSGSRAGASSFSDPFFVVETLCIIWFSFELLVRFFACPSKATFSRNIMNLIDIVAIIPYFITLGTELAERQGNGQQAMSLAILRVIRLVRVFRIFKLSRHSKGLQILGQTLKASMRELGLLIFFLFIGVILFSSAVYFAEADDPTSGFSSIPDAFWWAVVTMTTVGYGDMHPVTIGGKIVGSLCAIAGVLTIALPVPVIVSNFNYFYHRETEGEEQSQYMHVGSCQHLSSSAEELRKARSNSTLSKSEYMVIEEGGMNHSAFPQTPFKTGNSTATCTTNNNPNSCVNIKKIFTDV

Compound: ShK R1A (peptide)
- IC50 ratio (analog IC50/ShK IC50) [1]: 1.5
- free energy difference of binding [1]: 0.23 kcal/mol

Compound: ShK Y23Bpa (peptide)
- IC50 ratio (analog IC50/ShK IC50) [2]: 3.76
- free energy difference of binding [2]: 0.78 kcal/mol

Compound: ShK I7A (peptide)
- IC50 ratio (analog IC50/ShK IC50) [1]: 5.2
- free energy difference of binding [1]: 0.96 kcal/mol

Compound: CCCC[C@@H]1NC(=O)[C@H](CO)NC(=O)[C@H](Cc2c[nH]cn2)NC(=O)[C@H](CCCCN)NC(=O)[C@@H]2CSSC[C@@H]3NC(=O)[C@H]([C@@H](C)O)NC(=O)[C@H](CCCCN)NC(=O)[C@H](CCCNC(=N)N)NC(=O)[C@H](CSSC[C@H](NC(=O)[C@H](CCCNC(=N)N)NC(=O)[C@H](CO)NC(=O)[C@H](CCCCN)NC(=O)[C@@H]4CCCN4C(=O)[C@H]([C@@H](C)CC)NC(=O)[C@H]([C@@H](C)O)NC(=O)[C@H](CC(=O)O)NC(=O)[C@H]([C@@H](C)CC)NC(=O)[C@@H](NC(=O)[C@H](CO)NC(=O)[C@@H](N)CCCNC(=N)N)CSSC[C@@H](C(=O)O)NC(=O)[C@H]([C@@H](C)O)NC(=O)CNC3=O)C(=O)N[C@@H]([C@@H](C)O)C(=O)N[C@@H](C)C(=O)N[C@@H](Cc3ccccc3)C(=O)N[C@@H](CCC(N)=O)C(=O)N2)NC(=O)[C@H](Cc2ccccc2)NC(=O)[C@H](CO)NC(=O)[C@H](CC(C)C)NC(=O)[C@H](CCCNC(=N)N)NC(=O)[C@H](Cc2ccc(O)cc2)NC(=O)[C@H](CCCCN)NC1=O [M21Nle]
- Equipotent Molar Ration (Analog IC50 /ShK IC50) Rat brain [3]: 0.8
- effect on binding to either K channel subtype [3]: no significant affect on binding
- IC50 [3]: 9 nM
- Equipotent Molar Ration (Analog IC50 /ShK IC50) Lymphocyte [4]: 0.80

Compound: ShK K22Homocit (peptide)
- IC50 ratio (analog IC50/ShK IC50) [1]: > 500
- Kd [5]: > 100 nM
- IC50 ratio (analog IC50/ShK IC50) [6]: > 500
- free energy difference of binding [6]: > 3.65 kcal/mol

Compound: ShK P8A (peptide)
- IC50 ratio (analog IC50/ShK IC50) [1]: 1.9
- free energy difference of binding [1]: 0.38 kcal/mol

Compound: ShK K9A (peptide)
- IC50 ratio (analog IC50/ShK IC50) [1]: 1.3
- free energy difference of binding [1]: 0.15 kcal/mol

Compound: ShK Y23Apa (peptide)
- IC50 ratio (analog IC50/ShK IC50) [1]: 0.8
- IC50 ratio (analog IC50/ShK IC50) [2]: 0.8
- free energy difference of binding [2]: -0.13 kcal/mol
- Kd [5]: 0.12 nM

Compound: CC[C@H](C)[C@@H]1NC(=O)[C@@H](NC(=O)[C@H](CO)NC(=O)[C@@H](N)CCCNC(=N)N)CSSC[C@@H](C(=O)O)NC(=O)[C@H]([C@@H](C)O)NC(=O)CNC(=O)[C@@H]2CSSC[C@@H]3NC(=O)[C@H](CCC(N)=O)NC(=O)[C@H](Cc4ccccc4)NC(=O)[C@H](C)NC(=O)[C@H]([C@@H](C)O)NC(=O)[C@H](CSSC[C@H](NC(=O)[C@H](Cc4ccccc4)NC(=O)[C@H](CO)NC(=O)[C@H](CC(C)C)NC(=O)[C@H](CCCNC(=N)N)NC(=O)[C@H](Cc4ccc(O)cc4)NC(=O)[C@H](CCCCN)NC(=O)[C@H](CCSC)NC(=O)[C@H](CO)NC(=O)[C@H](Cc4c[nH]cn4)NC(=O)[C@H](CCCCN)NC3=O)C(=O)N[C@@H](CCCNC(=N)N)C(=O)N[C@@H](CCCCN)C(=O)N[C@@H]([C@@H](C)O)C(=O)N2)NC(=O)[C@H](CCCNC(=N)N)NC(=O)[C@H](CO)NC(=O)[C@H](CCCCN)NC(=O)[C@@H]2CCCN2C(=O)[C@H](C)NC(=O)[C@H]([C@@H](C)O)NC(=O)[C@H](CC(=O)O)NC1=O [I7A]
- Difference of Free Energy of Binding [3]: 0.96
- IC50 Ratio [3]: 5.2
- increase in relative free energy of binding [3]: approximately 1 kcal/mol

Compound: CC[C@H](C)[C@@H]1NC(=O)[C@@H](NC(=O)[C@H](CO)NC(=O)[C@@H](N)CCCNC(=N)N)CSSC[C@@H](C(=O)O)NC(=O)[C@H]([C@@H](C)O)NC(=O)CNC(=O)[C@@H]2CSSC[C@@H]3NC(=O)[C@H](CCC(N)=O)NC(=O)[C@H](Cc4ccccc4)NC(=O)[C@H](C)NC(=O)[C@H]([C@@H](C)O)NC(=O)[C@H](CSSC[C@H](NC(=O)[C@H](Cc4ccccc4)NC(=O)[C@H](CO)NC(=O)[C@H](CC(C)C)NC(=O)[C@H](CCCNC(=N)N)NC(=O)[C@H](Cc4ccc(O)cc4)NC(=O)[C@H](CCCCN)NC(=O)[C@H](CCSC)NC(=O)[C@H](CO)NC(=O)[C@H](Cc4c[nH]cn4)NC(=O)[C@H](CCCCN)NC3=O)C(=O)N[C@@H](CCCNC(=N)N)C(=O)N[C@@H](CCCCN)C(=O)N[C@@H]([C@@H](C)O)C(=O)N2)NC(=O)[C@H](CCCNC(=N)N)NC(=O)[C@H](CO)NC(=O)[C@H](CCC(N)=O)NC(=O)[C@@H]2CCCN2C(=O)[C@H]([C@@H](C)CC)NC(=O)[C@H]([C@@H](C)O)NC(=O)[C@H](CC(=O)O)NC1=O [K9Q]
- Equipotent Molar Ration (Analog IC50 /ShK IC50) Rat brain [3]: 0.6
- IC50 [3]: 11 nM
- Equipotent Molar Ration (Analog IC50 /ShK IC50) Lymphocyte [4]: 9.6
- reduction of affinity (IC50) for Kv1.3 relative to ShK toxin [4]: 9.6 fold

Compound: ShK Y23Cha (peptide)
- IC50 ratio (analog IC50/ShK IC50) [1]: 8.8
- free energy difference of binding [1]: 1.27 kcal/mol
- IC50 ratio (analog IC50/ShK IC50) [2]: 8.8
- free energy difference of binding [2]: 1.27 kcal/mol

Compound: CC[C@H](C)[C@@H]1NC(=O)[C@@H](NC(=O)[C@H](CO)NC(=O)[C@@H](N)CCCNC(=N)N)CSSC[C@@H](C(=O)O)NC(=O)[C@H]([C@@H](C)O)NC(=O)CNC(=O)[C@@H]2CSSC[C@@H]3NC(=O)[C@H](CCC(N)=O)NC(=O)[C@H](Cc4ccccc4)NC(=O)[C@H](C)NC(=O)[C@H]([C@@H](C)O)NC(=O)[C@H](CSSC[C@H](NC(=O)[C@H](Cc4ccccc4)NC(=O)[C@H](CO)NC(=O)[C@H](CC(C)C)NC(=O)[C@H](CCCNC(=N)N)NC(=O)[C@H](Cc4ccc(O)cc4)NC(=O)[C@H](CCC(=O)O)NC(=O)[C@H](CCSC)NC(=O)[C@H](CO)NC(=O)[C@H](Cc4c[nH]cn4)NC(=O)[C@H](CCCCN)NC3=O)C(=O)N[C@@H](CCCNC(=N)N)C(=O)N[C@@H](CCCCN)C(=O)N[C@@H]([C@@H](C)O)C(=O)N2)NC(=O)[C@H](CCCNC(=N)N)NC(=O)[C@H](CO)NC(=O)[C@H](CCCCN)NC(=O)[C@@H]2CCCN2C(=O)[C@H]([C@@H](C)CC)NC(=O)[C@H]([C@@H](C)O)NC(=O)[C@H](CC(=O)O)NC1=O [K22E]
- Equipotent Molar Ratio (Analog IC50 /ShK IC50) [3]: 726.0
- Free Energy Differ. of Binding ΔF [3]: 3.86
- binding affinity for rat brain K channels relative to wild-type ShK toxin, in words [3]: greatly reduced affinity

Compound: CC[C@H](C)[C@@H]1NC(=O)[C@@H](NC(=O)[C@H](CO)NC(=O)[C@@H](N)CCCNC(=N)N)CSSC[C@@H](C(=O)O)NC(=O)[C@H]([C@@H](C)O)NC(=O)CNC(=O)[C@@H]2CSSC[C@@H]3NC(=O)[C@H](CCC(N)=O)NC(=O)[C@H](Cc4ccccc4)NC(=O)[C@H](C)NC(=O)[C@H]([C@@H](C)O)NC(=O)[C@H](CSSC[C@H](NC(=O)[C@H](Cc4ccccc4)NC(=O)[C@H](CO)NC(=O)[C@H](CC(C)C)NC(=O)[C@H](CCCNC(=N)N)NC(=O)[C@H](Cc4ccc(O)cc4)NC(=O)[C@H](CCCNC(=N)N)NC(=O)[C@H](CCSC)NC(=O)[C@H](CO)NC(=O)[C@H](Cc4c[nH]cn4)NC(=O)[C@H](CCCCN)NC3=O)C(=O)N[C@@H](CCCNC(=N)N)C(=O)N[C@@H](CCCCN)C(=O)N[C@@H]([C@@H](C)O)C(=O)N2)NC(=O)[C@H](CCCNC(=N)N)NC(=O)[C@H](CO)NC(=O)[C@H](CCCCN)NC(=O)[C@@H]2CCCN2C(=O)[C@H]([C@@H](C)CC)NC(=O)[C@H]([C@@H](C)O)NC(=O)[C@H](CC(=O)O)NC1=O [K22R]
- Equipotent Molar Ration (Analog IC50 /ShK IC50) Rat brain [3]: > 500
- IC50 Ratio [3]: > 500
- ΔF [3]: > 3.65
- IC50 [3]: 2000 nM
- Equipotent Molar Ration (Analog IC50 /ShK IC50) Lymphocyte [4]: 225
- reduction of affinity (IC50) for Kv1.3 relative to ShK toxin [4]: > 225 fold

Compound: CC[C@H](C)[C@@H]1NC(=O)[C@@H](NC(=O)[C@H](CO)NC(=O)[C@@H](N)CCCNC(=N)N)CSSC[C@@H](C(=O)O)NC(=O)[C@H]([C@@H](C)O)NC(=O)CNC(=O)[C@@H]2CSSC[C@@H]3NC(=O)[C@H](CCC(N)=O)NC(=O)[C@H](Cc4ccccc4)NC(=O)[C@H](C)NC(=O)[C@H]([C@@H](C)O)NC(=O)[C@H](CSSC[C@H](NC(=O)[C@H](Cc4ccccc4)NC(=O)[C@H](CO)NC(=O)[C@H](CC(C)C)NC(=O)[C@H](CCCNC(=N)N)NC(=O)[C@H](CO)NC(=O)[C@H](CCCCN)NC(=O)[C@H](CCSC)NC(=O)[C@H](CO)NC(=O)[C@H](Cc4c[nH]cn4)NC(=O)[C@H](CCCCN)NC3=O)C(=O)N[C@@H](CCCNC(=N)N)C(=O)N[C@@H](CCCCN)C(=O)N[C@@H]([C@@H](C)O)C(=O)N2)NC(=O)[C@H](CCCNC(=N)N)NC(=O)[C@H](CO)NC(=O)[C@H](CCCCN)NC(=O)[C@@H]2CCCN2C(=O)[C@H]([C@@H](C)CC)NC(=O)[C@H]([C@@H](C)O)NC(=O)[C@H](CC(=O)O)NC1=O [Y23S]
- IC50 [3]: > 5000 nM

Compound: ShK K22 citrulline (peptide)
- IC50 [7]: 2000 nM

Compound: ShK Y23Nph (peptide)
- IC50 ratio (analog IC50/ShK IC50) [1]: 1
- IC50 ratio (analog IC50/ShK IC50) [2]: 1
- free energy difference of binding [2]: 0 kcal/mol
- Kd [5]: 0.2 nM

Compound: RSCIDSTIPKSRCTAAQKHSMKYRASFCRKTCGTC [A15 + A25]
- Equipotent Molar Ratio (Analog IC50 /ShK IC50) [3]: 2.1
- Free Energy Differ. of Binding ΔF [3]: 0.43
- IC50 Ratio [3]: 2.1
- ΔF [3]: 0.43

Compound: RSCIDTIPKSRCTAPQCKHSMKYRLSFCRKTCGAC [T34A]
- Difference of Free Energy of Binding [3]: 0.0
- IC50 Ratio [3]: 1.0

Compound: CC[C@H](C)[C@@H]1NC(=O)[C@@H](NC(=O)[C@H](CO)NC(=O)[C@@H](N)CCCNC(=N)N)CSSC[C@@H](C(=O)O)NC(=O)[C@H]([C@@H](C)O)NC(=O)CNC(=O)[C@@H]2CSSC[C@@H]3NC(=O)[C@H](CCC(N)=O)NC(=O)[C@H](Cc4ccccc4)NC(=O)[C@H](C)NC(=O)[C@H]([C@@H](C)O)NC(=O)[C@H](CSSC[C@H](NC(=O)[C@H](Cc4ccccc4)NC(=O)[C@H](CO)NC(=O)[C@H](CC(C)C)NC(=O)[C@H](CCCNC(=N)N)NC(=O)[C@H](Cc4ccc(O)cc4)NC(=O)[C@H](CCCCN)NC(=O)[C@H](CCSC)NC(=O)[C@H](CO)NC(=O)[C@H](Cc4c[nH]cn4)NC(=O)[C@H](CCCCN)NC3=O)C(=O)N[C@@H](CCCNC(=N)N)C(=O)N[C@@H](CCCCN)C(=O)N[C@@H]([C@@H](C)O)C(=O)N2)NC(=O)[C@H](CCCNC(=N)N)NC(=O)[C@H](CO)NC(=O)[C@H](C)NC(=O)[C@@H]2CCCN2C(=O)[C@H]([C@@H](C)CC)NC(=O)[C@H]([C@@H](C)O)NC(=O)[C@H](CC(=O)O)NC1=O [K9A]
- Difference of Free Energy of Binding [3]: 0.15
- IC50 Ratio [3]: 1.3
